The target of experiment [1] is human phosphodiesterase-5 (PDE5) (Homo sapiens (Human), UniProt O76074). Kind of experiment: PDE5 assay: formation of 5'GMP from cGMP, PDE5 enzyme isolated from human platelets.
Procedure: Purpose: Evaluation of the effects of compounds of the present invention on the activity of the human phosphodiesterase-5 quantified by measuring the formation of 5′GMP from cGMP using PDE5 enzyme isolated from human platelets.
Thereafter, the reaction is initiated by addition of the enzyme and the mixture is incubated for 60 min at 22° C.
For basal control measurements, the enzyme is omitted from the reaction mixture. Following incubation SPA beads are added. After 20 min at 22° C. under shaking, the amount of [3H]5′GMP is quantified with a scintillation counter (Topcount, Packard).
For experiment [2], the system named is phenylephrine-precontracted rat aortic rings. Kind of experiment: Isometric tension studies on rat aortic rings (relaxation of phenylephrine-precontracted rings). The settings on record: for potency and efficacy compared to intact endothelium, in words: L-NAME (FIG. 2C) or mechanical removal of endothelium (FIG. 2D); for pEC50 / Emax: Rattus norvegicus.
Procedure: After 1 week of acclimatization, rats were anesthetized. Appropriate depth of anesthesia was determined by the absence of the leg flexor response and the eyelid reflex. Then, the thorax was quickly opened by a midline incision, and the rat was sacrificed by cutting the heart and exsanguination.
Indomethacin (1 μM) was added to the saline solution.
Eligible rings were then washed several times to restore tension to the baseline level.
In some experiments, the entire length of the thoracic aorta was functionally denuded of the endothelial layer by gently scraping the luminal surface with a 1.5 mm glass rod. […] Rings were then washed several times to restore tension to the baseline level.
Indomethacin (1 μM) was added to the saline solution. […] Only vessels with at least 60% relaxation to 1 μM ACh from the tension with 300 nM were eligible.
The preparations were allowed to equilibrate for 60 min in Krebs with high glucose (25 mM) before contraction to a new single concentration of PE (300 nM).
Finally, sodium nitroprusside (0.1 mM) was added, in order to obtain maximum relaxation of arterial rings.
The amount of relaxation (percent values as means±SEM) was quantified as percent relaxation from the tension (plateau) achieved with phenylephrine.
Data are presented as mean±SEM. Statistical analysis of results has been performed by analysis of variance (ANOVA) either parametric or non-parametric (Kruskal-Wallis), followed by Bonferroni test or Dunn tests as appropriate (GraphPad Software Inc, San Diego, CA, USA). Significance was accepted when P<0.05. Non-linear regression was conducted with GraphPad Software).
In experiment [3] the test system is human pulmonary artery smooth muscle cells (hPASMC). Kind of experiment: Measurements of cGMP in human pulmonary artery smooth muscle cells (hPASMC). Type of experiment: cell-based. The settings on record: incubation 15 or 30 min. The procedure: Human Pulmonary Artery Smooth Muscle Cells (hPASMC) were purchased from Clonetics™ Lonza (Lonza, reference number CC-2581) and cultured in Clonetics™ smooth muscle growth medium (Clonetics™ SmGM™-2 with BulletKit™ growth factor supplements (Lonza, reference number CC-3182) at 37° C. in 500 CO2. Culture medium was replaced each 48 hours. Cells were grown in 75 cm^2 culture plates. 48 h before the experiments, cells were trypsinized (Trypsin kit One ReagentPack™ (CC-5034), Lonza) and plated in 96 well plates precoated with collagen I at 10000 cells per well. 24 h before the experiments culture medium was replaced by serum-reduced (0.5% FBS) medium.
Measurements of intracellular cGMP were performed using the Amersham cGMP EIA System (GE Healthcare, RPN226) following the instructions of the manufacturer. The assay has a sensitivity of 2 fmol cGMP per well. Briefly, incubations were terminated by adding Amersham's lysis buffer 1 and cells left for 10 min under agitation to ensure complete lysis. cGMP in samples was then acetylated using triethylamine and acetic anhydride and determined by a competitive ELISA. The ELISA is based on the competition between acetylated cGMP in cell culture lysates and a peroxidase-labelled cGMP conjugate for limited binding sites on a cGMP specific antiserum immobilized on pre-coated 96 well MTP. cGMP was determined based on a standard curve. […]

pEC50, pIC50: −log10 of the molar value. Read-outs that look alike come from different tables or passages of the source.

The term pIC50 denotes the IC50 on a negative log10 scale, so that one unit is a factor of ten. Low readings indicate a high IC50, high ones a low IC50. As for `CCCc1c(/C=N/O)c(C)c2c(=O)[nH]c(-c3cc(S(=O)(=O)N4CCN(C)CC4)ccc3OCC)nn12` [Compound 1a, (E)-2-(2-ethoxy-5-((4-methylpiperazin-1-yl)sulfonyl)phenyl)-5-methyl-4-oxo-7-propyl-3,4-dihydropyrrolo[2,1-f][1,2,4]triazine-6-carbaldehyde oxime], the pIC50 in experiment [1] (human platelet PDE5) is 9.60.

Molecule `CCCc1c(/C=N/O)c(C)c2c(=O)[nH]c(-c3cc(S(=O)(=O)N4CCN(CCCO)CC4)ccc3OCC)nn12` [Compound 1an, (E)-2-(2-ethoxy-5-(4-(3-hydroxypropyl)piperazin-1-ylsulfonyl)phenyl)-5-methyl-4-oxo-7-propyl-3,4-dihydropyrrolo[1,2-f][1,2,4]triazine-6-carbaldehyde oxime] had a negative logarithm of the IC50 (pIC50) in experiment [1] (human platelet PDE5) of 9.38.

`CCCOc1ccc(S(=O)(=O)N2CCN(C)CC2)cc1-c1nn2c(CCC)c(/C=N/OC)c(C)c2c(=O)[nH]1` [Compound 1o, (E)-5-methyl-2-(5-((4-methylpiperazin-1-yl)sulfonyl)-2-propoxyphenyl)-4-oxo-7-propyl-3,4-dihydropyrrolo[2,1-f][1,2,4]triazine-6-carbaldehyde O-methyl oxime] showed a pIC50 in experiment [1] (human platelet PDE5) of 9.28. The pIC50 values of the last two molecules are within 0.2 log units of each other.

One may read the pEC50 as the negative decadic logarithm of the EC50, by convention in mol/L. The Emax is the greatest response seen or fitted, relative to the assay's reference. Turning to `CCCOc1ccc(S(=O)(=O)N2CCC(CCO)CC2)cc1-c1nn2c(CCC)c(/C=N/O)c(C)c2c(=O)[nH]1` [Compound 1r, (E)-2-(5-((4-(2-hydroxyethyl)piperidin-1-yl)sulfonyl)-2-propoxyphenyl)-5-methyl-4-oxo-7-propyl-3,4-dihydropyrrolo[2,1-f][1,2,4]triazine-6-carbaldehyde oxime], the “potency and efficacy compared to intact endothelium, in words” value in experiment [2] is “largely impaired”. Further, the pEC50 in experiment [2] (High Glucose (25 mM)) is 8.55; in experiment [2] (Intact Endothelium (E+)) it was 11.13; in experiment [2] (L-NAME (100 μM)), 9.03; in experiment [2] (Without Endothelium), 8.23. For the same molecule, the Emax came out at 51% in experiment [2] (High Glucose (25 mM)), 91.9% in experiment [2] (Intact Endothelium (E+)), 60.4% in experiment [2] (L-NAME (100 μM)) and 39.8% in experiment [2] (Without Endothelium). Besides, the “relaxation of rat aortic rings, comparison in words” value in experiment [2] (intact endothelium (FIG. 2A)) is “more potent and effective than Sildenafil”. The pIC50 in experiment [1] was 9.80. Also, in experiment [3], the “cGMP in hPASMC, activity compared to sildenafil” value is on record as “significantly higher activity as compared to the reference inhibitor sildenafil”.

As to `CCCOc1ccc(S(=O)(=O)N2CCC(CCO[N+](=O)[O-])CC2)cc1-c1nn2c(CCC)c(/C=N/O)c(C)c2c(=O)[nH]1` [Compound 1v, (E)-2-(1-((3-(6-((hydroxyimino)methyl)-5-methyl-4-oxo-7-propyl-3,4-dihydropyrrolo[2,1-f][1,2,4]triazin-2-yl)-4-propoxyphenyl)sulfonyl)piperidin-4-yl)ethyl nitrate], the “potency and efficacy compared to intact endothelium, in words” value in experiment [2] is “superior”. Moreover, the “relaxation of rat aortic rings, comparison in words” value in experiment [2] (intact endothelium (FIG. 2A)) was “more potent and effective than Sildenafil”; in experiment [2] (pre-exposed to high glucose 25 mM (FIG. 2B)), “clearly more potent and efficacious than 1r”. Moreover, the “cGMP in hPASMC, activity compared to sildenafil” value in experiment [3] is “significantly higher activity as compared to the reference inhibitor sildenafil”.

Broadly, the % inhibition is the relative decrease from the control value, in per cent. A higher % inhibition goes with a response far below the control. With “(E)-2-(2-ethoxy-5-(4-(2-hydroxyethyl)piperidin-1-ylsulfonyl)phenyl)-5-methyl-4-oxo-7-propyl-3,4-dihydropyrrolo[1,2-f][1,2,4]triazine-6-carbaldehyde oxime [Compound 1al]”, the “% inhibition at 5.0E−09M” value in experiment [1] (5.0E−09M, percent inhibition of control enzyme activity) is listed as 84.9%. The pIC50 in experiment [1] (human platelet PDE5) is 9.32.

As to “(E)-2-(4-(4-ethoxy-3-(6-((methoxyimino)methyl)-5-methyl-4-oxo-7-propyl-3,4-dihydropyrrolo [1,2-f][1,2,4]triazin-2-yl)phenylsulfonyl)piperazin-1-yl)ethyl nitrate [Compound 1ai]”, the “% inhibition at 5.0E−09M” value in experiment [1] came out at 0.3%.

The record behind these values is patent US12351585B2, “2-phenyl-3,4-dihydropyrrolo[2,1-f] [1,2,4]triazinone derivatives as phosphodiesterase inhibitors and uses thereof” (TOPADUR PHARMA AG, priority 2015, dated 2025).
